Measured values reported in article PMC12516686, “Design of 2‑Aminobenzothiazole Derivatives Targeting Trypanosomatid PTR1 by a Multidisciplinary Fragment Hybridization Approach” (Journal of Medicinal Chemistry, 2025).

Test system: THP-1-derived macrophages
Experiment: Cytotoxicity assay (MTT) on THP-1-derived macrophages
Format: cell-based, Human
Settings: THP-1 CC50 vs T. brucei EC50
Method: Human leukemia cell line THP-1 (ATCC TIB202) cells were cultured in RPMI-1640 medium supplemented with 10% heat-inactivated fetal bovine serum (FBS), 2 mM L-glutamine, 100 IU/mL penicillin/streptomycin, and 20 mM HEPES. The cell line was maintained in a humidified incubator at 37 °C with 5% CO2. Subcultures were performed every 3 days in 20 mL of media at a concentration of 2 × 10^5 cells/mL in a T75 flask. All cell culture reagents were purchased from Lonza Bioscience (Morrisville, NC).
The cytotoxicity of the compounds on THP-1-derived macrophages was assessed using the colorimetric MTT assay (3-(4,5-dimethylthiazol-2-yl)-2,5-diphenyl tetrazolium bromide) as described elsewhere. THP-1 cells were suspended in RPMI complete medium at a density of 1 × 10^6 cells/mL, and 100 μL/well was seeded in a 96-well plate. The cells were differentiated into macrophages by adding 40 ng/mL of phorbol-myristate 13-acetate (PMA, Sigma, Saint Louis, MI, USA) for 24 h, followed by replacement with fresh medium for another 24 h. Subsequently, the cells were incubated with 100 μL of compounds, ranging from 100 to 12.5 μM, diluted in RPMI complete medium. Each condition was tested in triplicate. After 72 h of incubation at 37 °C with 5% CO2, the medium was removed, and 200 μL of 0.5 mg/mL MTT solution diluted in RPMI was added. The plates were incubated for an additional 4 h, after which 160 μL of the media was removed and replaced with 160 μL of 2-propanol. Absorbance was read at 570 nm using a Synergy 2 Multi-Mode Reader (Biotek, Winooski, VT, USA). Cytotoxicity was evaluated by presenting the CC50 (the concentration of the drug that reduces cell viability by 50%) interval or by determining the CC50 value through nonlinear regression analysis using GraphPad Prism version 8.1.1 for Windows (GraphPad Software, San Diego, CA, USA). Results represent the average of at least three independent experiments.

Compound	Selectivity index toward THP-1 cells
Nc1nc2ccc(C(=O)NCCc3ccc(Cl)c(Cl)c3)cc2s1 [Compound 1a, 2-amino-N-(3,4-dichlorophenethyl)benzo[d]thiazole-6-carboxamide]	over 16
Nc1nc2ccc(C(=O)N(CCc3ccc(Cl)c(Cl)c3)C3CC3)cc2s1 [Compound 1b, 2-amino-N-cyclopropyl-N-(3,4-dichlorophenethyl)benzo[d]thiazole-6-carboxamide]	5−10
